From ChEMBL document CHEMBL3132819, “2-Hydroxy-substituted cinnamic acids and acetanilides are selective growth inhibitors of Mycobacterium tuberculosis” (Medchemcomm, 2014)
Values after ≈ are worked out from the molar mass of the structure shown.

system: Mycobacterium tuberculosis variant bovis BCG; test: Antibacterial activity against Mycobacterium bovis BCG ATCC 35734 after 2 weeks by spot culture growth inhibition assay; type: functional; details: ATCC 35734, 336 h

Row | SMILES | MIC
1 | COC(=O)/C=C/c1ccc(O)cc1 [METHYL P-HYDROXYCINNAMATE] | 337 µM (≈ 60 µg/mL)
2 | CC(=O)Nc1cccc(O)c1 [METACETAMOL] | > 661 µM
3 | CC(C)=CCOc1ccc(/C=C/C(=O)O)cc1 | 86.1 µM (≈ 20 µg/mL)
4 | COC(=O)/C=C/c1cccc(OCC=C(C)C)c1 | 244 µM (≈ 60.1 µg/mL)
5 | O=C(O)/C=C/c1ccc2c(c1)OCO2 | 416 µM (≈ 79.9 µg/mL)
6 | COC(=O)/C=C/c1ccccc1O | 112 µM (≈ 20 µg/mL)
7 | NNC(=O)c1ccncc1 [ISONIAZID] | 0.73 µM (≈ 0.1 µg/mL)
8 | O=C(O)/C=C/c1ccc(O)cc1 [COUMARIC ACID] | 366 µM (≈ 60.1 µg/mL)
9 | COC(=O)/C=C/c1ccc(OC/C=C(\C)CCC=C(C)C)cc1 | 254 µM (≈ 79.9 µg/mL)
10 | CC(C)=CCOc1ccccc1/C=C/C(=O)O | 258 µM (≈ 59.9 µg/mL)
11 | COC(=O)/C=C/c1ccccc1OCC=C(C)C | > 406 µM
12 | CC(C)=CCC/C(C)=C/COc1ccc(/C=C/C(=O)O)cc1 | 134 µM (≈ 40.3 µg/mL)
13 | COC(=O)/C=C/c1ccc(OCC=C(C)C)cc1 | 60.9 µM (≈ 15 µg/mL)
14 | O=C(O)/C=C/c1cccc(O)c1 | 609 µM (≈ 100 µg/mL)
15 | CO[C@H]1/C=C/O[C@@]2(C)Oc3c(C)c(O)c4c(O)c(c(/C=N/N5CCN(C)CC5)c(O)c4c3C2=O)NC(=O)/C(C)=C\C=C\[C@H](C)[C@H](O)[C@@H](C)[C@@H](O)[C@@H](C)[C@H](OC(C)=O)[C@@H]1C [RIFAMPIN] | 0.0607 µM (≈ 0.05 µg/mL)
16 | CC(C)=CCOc1cccc(/C=C/C(=O)O)c1 | 258 µM (≈ 59.9 µg/mL)
17 | COC(=O)/C=C/c1cccc(O)c1 | 561 µM (≈ 100 µg/mL)
18 | O=C(O)/C=C/c1ccccc1O [O-COUMARIC ACID] | 244 µM (≈ 40.1 µg/mL)
19 | CC(=O)Nc1ccc(O)cc1 [ACETAMINOPHEN] | > 661 µM
20 | CC(=O)Nc1ccccc1O | 132 µM (≈ 20 µg/mL)
21 | O=C(O)/C=C/c1ccccc1 [CINNAMIC ACID] | 405 µM (≈ 60 µg/mL)
